Source: patent publication US11155539B2, “4-pyridinylmethyl-morpholine derivatives and the use thereof as medicament” (Boehringer Ingelheim International GmbH, priority 2018, dated 2021)

Legend:
[1] = Metabolic stability in pooled human liver microsomes; type: in vitro ADME; conditions: pH 7.6, 1 μM compound, 37° C., NADPH, read-out: Half-life - t½ human liver microsomes
Text: Stability in human liver microsomes refers to the susceptibility of compounds to biotransformation in the context of selecting and/or designing drugs with favorable pharmacokinetic properties. The primary site of metabolism for many drugs is the liver. Human liver microsomes contain the cytochrome P450s (CYPs), and thus represent a model system for studying drug metabolism in vitro Enhanced stability in human liver microsomes is associated with several advantages, including increased bioavailability and adequate half-life, which can enable lower and less frequent dosing of patients. Thus, enhanced stability in human liver microsomes is a favorable characteristic for compounds that are to be used for drugs.
The metabolic degradation of the test compound was assayed at 37° C. with pooled human liver microsomes. The final incubation volume of 60 μl per time point contains TRIS buffer pH 7.6 at room temperature (0.1 M), magnesium chloride (5 mM aqueous solution), microsomal protein (1 mg/mL for human) and the test compound at a final concentration of 1 μM. Following a short preincubation period at 37° C., the reactions were initiated by addition of betanicotinamide adenine dinucleotide phosphate, reduced form (NADPH, 1 mM), and terminated by transferring an aliquot into acetonitril after different time points. After centrifugation (10000 g, 5 min), an aliquot of the supernatant was assayed by HPLC-MS/MS as described above for the MDCK assay P-gp for the amount of parent compound. The half-life was determined by the slope of the semi-logarithmic plot of the concentration-time profile.

[2] = biological target: T1, NMDA NR1/NR2B receptor (Homo sapiens, UniProt Q05586+Q13224); experiment: In vitro NMDA NR1/NR2B cell assay (FLIPR, intracellular calcium induced by glycine/glutamate); type: cell-based; conditions: HEK293 cells expressing NMDA NR1/NR2B; 20 μM glycine, 1 μM glutamate; read-out: IC50 (in vitro NR2B affinity, FLIPR assay)
T1 construct: host or cells: HEK293, tetracycline-inducible expression
How it was run: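 HEK293 cells with tetracycline-induced NR1/NR2B, induced 48 h, loaded with Fluo-8 for 60 min at room temperature, stimulated with 20 μM glycine plus 1 μM glutamate (final) in HEPES buffer pH 7.4. Compound added 2 min later at 0.9% DMSO; fluorescence at ~5 min normalised to DMSO and 1 μM reference NAM controls, IC50 by 4-parameter fit.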

T1 sequence (Q13224 27-1484, other chains not shown): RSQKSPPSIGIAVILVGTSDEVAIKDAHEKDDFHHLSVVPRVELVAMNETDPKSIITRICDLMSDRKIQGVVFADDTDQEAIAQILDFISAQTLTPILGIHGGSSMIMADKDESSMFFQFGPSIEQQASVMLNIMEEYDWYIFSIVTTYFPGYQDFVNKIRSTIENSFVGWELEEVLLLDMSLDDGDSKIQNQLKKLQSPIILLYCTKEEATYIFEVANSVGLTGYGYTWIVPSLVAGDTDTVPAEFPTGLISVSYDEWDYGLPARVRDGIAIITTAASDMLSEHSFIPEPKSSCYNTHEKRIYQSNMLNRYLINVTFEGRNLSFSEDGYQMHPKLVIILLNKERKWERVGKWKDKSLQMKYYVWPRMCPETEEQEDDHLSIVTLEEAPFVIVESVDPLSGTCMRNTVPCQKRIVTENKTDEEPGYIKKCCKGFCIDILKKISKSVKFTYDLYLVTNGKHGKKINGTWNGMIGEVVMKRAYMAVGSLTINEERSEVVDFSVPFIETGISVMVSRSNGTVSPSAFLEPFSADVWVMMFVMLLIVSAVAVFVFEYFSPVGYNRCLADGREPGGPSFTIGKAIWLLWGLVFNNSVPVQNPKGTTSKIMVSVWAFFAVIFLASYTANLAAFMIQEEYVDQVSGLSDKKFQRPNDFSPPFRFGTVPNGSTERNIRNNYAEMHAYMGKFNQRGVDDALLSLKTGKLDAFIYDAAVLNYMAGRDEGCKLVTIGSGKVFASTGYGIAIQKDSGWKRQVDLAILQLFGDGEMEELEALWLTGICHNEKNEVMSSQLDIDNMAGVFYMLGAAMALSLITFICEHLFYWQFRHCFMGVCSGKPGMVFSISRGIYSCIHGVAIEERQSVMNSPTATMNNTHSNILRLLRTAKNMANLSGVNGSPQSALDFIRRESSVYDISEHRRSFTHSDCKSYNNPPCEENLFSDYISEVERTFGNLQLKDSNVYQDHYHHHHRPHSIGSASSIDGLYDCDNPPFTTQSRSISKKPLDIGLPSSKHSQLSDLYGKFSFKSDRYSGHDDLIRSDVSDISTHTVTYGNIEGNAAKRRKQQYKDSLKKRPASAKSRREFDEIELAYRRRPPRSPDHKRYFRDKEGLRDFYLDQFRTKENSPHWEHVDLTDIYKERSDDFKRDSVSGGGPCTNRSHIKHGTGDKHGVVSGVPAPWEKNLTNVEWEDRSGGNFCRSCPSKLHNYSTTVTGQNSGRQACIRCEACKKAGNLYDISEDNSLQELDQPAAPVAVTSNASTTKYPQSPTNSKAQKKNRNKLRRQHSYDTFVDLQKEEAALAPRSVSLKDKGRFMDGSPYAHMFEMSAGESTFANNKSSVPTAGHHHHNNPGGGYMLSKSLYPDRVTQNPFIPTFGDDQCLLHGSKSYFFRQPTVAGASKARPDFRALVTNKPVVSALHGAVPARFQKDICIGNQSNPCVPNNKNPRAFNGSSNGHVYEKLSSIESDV

| Structure (SMILES) | half-life at 1 μM [1] [h] | IC50 [2] [nM] |
| --- | --- | --- |
| CNC(=O)[C@@H]1CN(Cc2ccc(Oc3ccccc3Cl)nc2)CCO1 [Example 17] | > 2.17 | 188 |
| CNC(=O)[C@@H]1CN(Cc2ccc(Oc3ccccc3F)nc2)CCO1 [Example 19] | > 2.17 | 199 |
| CNC(=O)[C@@H]1CN(Cc2ccc(Oc3ccc(C)cc3)nc2)CCO1 [Example 29] | > 2.17 | 194 |
| CNC(=O)[C@@H]1CN(Cc2ccc(Oc3ccc(F)cc3)cn2)CCO1 [Example 30] | > 2.17 | 454 |
